From patent US5854036A, “Sesquiteterpenic dervatives” (Gruppo Lepetit S.p.A., priority 1994, dated 1998)
“Also recorded” adds a separate entry of the source.

Experiments:
complement system = conditions: literature statement; cited from earlier work
[1] = biological target: T1, inositol monophosphatase (EC 3.1.3.25) (Bos taurus, UniProt P20456); assay: inhibition of inositol monophosphatase (IMPase, EC 3.1.3.25); phosphate liberated from 4 mM 2-glycerolphosphate, molybdate coloration; assay type: biochemical, animal; conditions: for IC50: Table 1, pH 7.5, 4 mM 2-glycerolphosphate, 5 ug/ml IMPase, 30 minutes, read-out: IC50 (amount of inhibitor required to inhibit the enzyme activity by 50%) (converted)
T1 construct: host or cells: animal brain or recombinant E. coli expressing animal IMPase
T1 sequence (P20456 1-277): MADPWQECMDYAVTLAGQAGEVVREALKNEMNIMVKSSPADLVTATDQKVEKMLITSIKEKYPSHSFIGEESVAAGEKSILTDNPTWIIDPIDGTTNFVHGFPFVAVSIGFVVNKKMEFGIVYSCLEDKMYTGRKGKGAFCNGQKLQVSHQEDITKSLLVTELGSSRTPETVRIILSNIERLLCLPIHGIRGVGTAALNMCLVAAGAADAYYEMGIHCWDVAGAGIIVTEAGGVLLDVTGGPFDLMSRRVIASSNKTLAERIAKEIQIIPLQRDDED
Source text: For determining said activity, IMPase with a purity higher than 90% as judged by SDS-PAGE (sodium dodecyl sulphate polyacrylamide gel electrophoresis) is purified as described in P. D. Pelton and A. J.
Ganzhorn, Journal Biolog. Chem., 267, 1992, pp. 5916-5920. The enzyme can be purified from animal brain or from recombinant E. coli strains expressing animal IMPase. Although crude enzyme preparations can also be used it is preferable to use purified enzyme. The purified enzyme routinely has a specific activity of 25 μmol of Pi/min/mg of protein as determined in a standard assay (P. V. Attwood et al., Biochem. Jour., 1988, 253, pp. 387-394) with 4 mH 2-glycerolphosphate as substrate.
The enzyme activity may be determined according to A. J. Ganzhorn and M. C. Chanal, Biochem., 1990, 29; the reaction mixture contains 50mM Tris-HCl, pH 7.5, 2 mM magnesium chloride and 0.1 mM EGTA. Then, 5 ug/ml of IMPase and 4 mM of 2-glycerolphosphate substrate are added to the reaction mixture; alternatively, it is also possible to add the substrate directly into the reaction mixture, before adding the enzyme.
The reaction is considered terminated after 30 minutes from the addition of the substrate or the enzyme (depending on which one is added later); the liberated phosphate is determined by molybdate coloration (P. V. Attwood et al., Biochem. Jour., 1988, 253, pp. 387-394) at 350 nm with a Shimadzu spectrophotometer UV 2100.
The enzyme reaction is performed either in the absence or in the presence of various concentrations of 6'β-Stachybotrydial or MDL63394 to determine the amount of inhibitor required to inhibit the enzyme activity by 50% (IC50); the results are reported in Table 1, compared with the activity of L-671,776.

inositol monophosphatase = conditions: literature statement; cited from earlier work
[2] = test system: manic symptoms / bipolar disorder; conditions: cited from earlier work
[3] = cited from earlier work

Compound: C[C@@H]1CCC2C(C)(C)[C@H](O)C(O)C[C@]2(C)[C@@]12Cc1c(O)cc(C=O)c(C=O)c1O2 (stereo partly shown) [K-76]
- inhibitor of the complement system (complement system): inhibitor of the complement system

Compound: CC1CCC2C(C)(C)C(O)CCC2(C)C12Cc1c(O)cc(CO)c(C=O)c1O2 [L-671,776]
- IC50 [1]: 463 µM
- IMPase-inhibiting activity (inositol monophosphatase): shows the above IMPase-inhibiting activity

Compound: C[C@@H]1CCC2C(C)(C)[C@@H](O)CC[C@]2(C)[C@@]12Cc1c(O)cc(C=O)c(C=O)c1O2 (stereo partly drawn) [6'β-Stachybotrydial]
- IC50 [1]: 64.7 µM
- inhibitory activity against the enzyme inositol monophosphatase ([1]; qualitative statement): show inhibitory activity

Compound: lithium
- IMPase-inhibiting activity (inositol monophosphatase): inhibits the activity of said enzyme
- time to exert antimanic effect ([2]; acute bipolar disorder): 7 to 10 days
- antimanic / prophylactic effect ([2]; manic patients): highly specific in alleviating manic symptoms; also recorded: clear prophylaxis against disease recurrences and deterioration has been demonstrated
- adverse effects ([3]; lithium therapy): can cause a transient leukocytosis, can cause patients with a borderline thyroid reserve to become clinically hypothyroid, and can decompensate cardiac status due to shifts in fluids and electrolytes; also recorded: Structural lesions in kidney, such as interstitial fibrosis, tubular atrophy and glomerular sclerosis; also recorded: tremor, weight gain, diarrhea and skin rash
- occurrence of polyuria-polydipsia syndrome ([3]; treated patients): up to 60%
